Laboratory results as given in patent US3989837A, “Pharmaceutical compositions” (Chinoin Gyogyszer-es Vegyeszeti Termekek Gyara RT, priority 1972, dated 1976).
Read-outs that look alike come from different tables or passages of the source.

What was measured:
mice = experiment: Toxicity on mice after oral administration, single dosage (Table 1'); assay type: in vivo; conditions: for Perished animals/treated animals: male mice
Procedure: (§1) The tests were carried out on male mice weighing 25 to 30 g., not starved previously. The compounds were administered in a dosage of 0.2 ml. of suspension per 10 g. body weight. The individual dosages indicated in Table 1' were administered to 10 mice each. The given amount of active agent was added in a single dosage, and the animals were dept under observation for 7 days (= 168 hours). The number of deceased animals was recorded daily.
(§2) The LD50 values were calculated according to the Litchfied-Wilcoxon method, by also taking into account the number of animals perished within 168 hours from the administration.

[1] = as above; assay type: in vivo; conditions: mouse, in vivo, po, male mice, p.o., 168 hours
Procedure: as §1, §2

carrageenine oedema = experiment: Rat paw oedema, carrageenine (Table 5'); assay type: in vivo; conditions: for Effect %, inhibition of carrageenine oedema: female rats
Procedure: (§3) Inflammatory plantar oedema was provided by the subplantar injection of 0.1 ml. of 5% kaoline or 0.5% carrageenine on female rats each weighing 110 to 130 g., starved for 24 hours. The dorsoplantar diameter of the test animals was measured with a double-armed instrument prior to the administration of the phlogistic (basic value) and at regular intervals (at 2, 3.5 and 5 hours for kaoline and at 1.5, 3 and 4.5 hours for carrageenine) after the administration of the phlogistic. […] The treatment was always carried out 1 hour before the administration of the phlogistic. The animals belonging to the control group received suspending agent only. In order to ensure a uniform hydration grade, 1 ml. of tap water was administered through a stomach tube to the animals simultaneously with the administration of the active agent. During the test period the animals were allowed to consume water ad libitum.
(§4) The effect was calculated from the difference of the increase in paw diameter observed in the treated and control groups. The daga are given as percentage efficiacy.
(§5) The significance level was examined by Student's t test. The significance levels are marked by asterisks; the values of the repeated tests are given separately.

cotton granuloma = experiment: Cotton granuloma, comparison with Indomethacine (Table 6); assay type: in vivo, rat; conditions: for Effect %, cotton granuloma: male rats, 7 days
Procedure: Two cotton beads, each weighing 23 to 27 mg., were implanted under the dorsal skin of the animals in aether narcosis, under semisterile conditions, along both sides of the vertebral column. The compound under examination was administered twice a day for 7 days in oral dosages of 0.2 ml./100 g. body weight, in a suspension formed with 1% methyl cellulose. On the 8th day the animals were killed by etheral overnarcosis, the granulomes were removed, dried at 50° C for 5 hours, and then weighed. The animals belonging to the control group were treated similarly, but they received suspending agent only. The percentage efficiacy was calculated from the weight differences of the granuloma tissues observed for the treated and control groups. The significance was examined by the t test.

kaoline oedema = experiment: Rat paw oedema, kaoline (Table 4'); assay type: in vivo; conditions: for Effect % (average), inhibition of kaoline oedema / Effect %, inhibition of kaoline oedema: female rats; for Effect % (average), inhibition of kaoline oedema: average of repeated tests
Procedure: as §3, §4, §5

rats = experiment: Ulcerogeneous action on rats, comparison with Indomethacine (Table 3'); conditions: for Animals having lesions on the intestines / Survivals / Ulcer number: male rats, 5 days
writhing syndrome = experiment: Writhing syndrome, comparison with Indomethacine (Table 7); assay type: in vivo, mouse; conditions: for Effect % average, writhing: male mice
Procedure: The tests were carried out on male mice each weighing 15 to 18 g., starved for 16 hours prior to treatment. 0.1 ml./10 g. body weight of 1% acetic acid solution was injected intraperitoneally to the animals. The sterile inflammation occurred on the action of acetic acid provoked a characteristic syndrome (writhing). The number of writhings was counted during an observation period of 20 minutes, starting 15 minutes after the administration of acetic acid. The substance to be tested was administered orally as a suspension, in a dosage of 0.1 ml./10 g. body weight 2 to 4 hours before the acetic acid injection. The average number of writhings observed for the treated animals was compared to that observed in the control group, and the percentage inhibition was calculated from the difference.

Structure (SMILES): COc1ccc2c(c1)c(CC(=O)OCC(Cl)(Cl)Cl)c(C)n2C(=O)c1ccc(Cl)cc1 [Example 5, 1-(p-chlorobenzoyl)-2-methyl-5-methoxy-indol-3-yl-acetic-acid trichloroethyl ester]
- therapeutical width compared with Indomethacine (mice; considering the toxicity values): far more favorable than that of Indomethacine
- Perished animals/treated animals (mice; oral 1367 (1000) mg./kg., 24 h): 0/10
- Perished animals/treated animals (mice; oral 1367 (1000) mg./kg., 48 h): 0/10
- Perished animals/treated animals (mice; oral 1367 (1000) mg./kg., 72 h): 0/10
- Perished animals/treated animals (mice; oral 1367 (1000) mg./kg., 96 h): 0/10
- Perished animals/treated animals (mice; oral 1367 (1000) mg./kg., 120 h): 0/10
- Perished animals/treated animals (mice; oral 1367 (1000) mg./kg., 144 h): 0/10
- Perished animals/treated animals (mice; oral 1367 (1000) mg./kg., 168 h): 0/10
- Perished animals/treated animals (mice; oral 2050 (1500) mg./kg., 24 h): 0/10
- Perished animals/treated animals (mice; oral 2050 (1500) mg./kg., 48 h): 0/10
- Perished animals/treated animals (mice; oral 2050 (1500) mg./kg., 72 h): 0/10
- Perished animals/treated animals (mice; oral 2050 (1500) mg./kg., 96 h): 0/10
- Perished animals/treated animals (mice; oral 2050 (1500) mg./kg., 120 h): 0/10
- Perished animals/treated animals (mice; oral 2050 (1500) mg./kg., 144 h): 0/10
- Perished animals/treated animals (mice; oral 2050 (1500) mg./kg., 168 h): 1/10
- Perished animals/treated animals (mice; oral 2734 (2000) mg./kg., 24 h): 0/10
- Perished animals/treated animals (mice; oral 2734 (2000) mg./kg., 48 h): 0/10
- Perished animals/treated animals (mice; oral 2734 (2000) mg./kg., 72 h): 2/10
- Perished animals/treated animals (mice; oral 2734 (2000) mg./kg., 96 h): 2/10
- Perished animals/treated animals (mice; oral 2734 (2000) mg./kg., 120 h): 4/10
- Perished animals/treated animals (mice; oral 2734 (2000) mg./kg., 144 h): 6/10
- Perished animals/treated animals (mice; oral 2734 (2000) mg./kg., 168 h): 6/10
- Perished animals/treated animals (mice; oral 3417 (2500) mg./kg., 24 h): 0/10
- Perished animals/treated animals (mice; oral 3417 (2500) mg./kg., 48 h): 1/10
- Perished animals/treated animals (mice; oral 3417 (2500) mg./kg., 72 h): 1/10
- Perished animals/treated animals (mice; oral 3417 (2500) mg./kg., 96 h): 3/10
- Perished animals/treated animals (mice; oral 3417 (2500) mg./kg., 120 h): 4/10
- Perished animals/treated animals (mice; oral 3417 (2500) mg./kg., 144 h): 6/10
- Perished animals/treated animals (mice; oral 3417 (2500) mg./kg., 168 h): 7/10
- Perished animals/treated animals (mice; oral 4101 (3000) mg./kg., 24 h): 0/10
- Perished animals/treated animals (mice; oral 4101 (3000) mg./kg., 48 h): 1/10
- Perished animals/treated animals (mice; oral 4101 (3000) mg./kg., 72 h): 3/10
- Perished animals/treated animals (mice; oral 4101 (3000) mg./kg., 96 h): 4/10
- Perished animals/treated animals (mice; oral 4101 (3000) mg./kg., 120 h): 5/10
- Perished animals/treated animals (mice; oral 4101 (3000) mg./kg., 144 h): 7/10
- Perished animals/treated animals (mice; oral 4101 (3000) mg./kg., 168 h): 7/10
- LD50 at 168 h ([1]; equivalent amounts of Indomethacine, read-out: LD50 as equivalent amount of Indomethacine): 1570 mg/kg
- LD50 at 168 h ([1]; read-out: LD50): 2150 mg/kg
- dosage inhibiting oedema, times higher than Indomethacine (carrageenine oedema; carrageenine oedema, molar equivalents compared): about 2.5 times
- Effect %, inhibition of carrageenine oedema (carrageenine oedema; p.o. 13.67 (10) mg./kg., 1.5 hours): 9.8%
- Effect %, inhibition of carrageenine oedema (carrageenine oedema; p.o. 13.67 (10) mg./kg., 3 hours): 15.8%
- Effect %, inhibition of carrageenine oedema (carrageenine oedema; p.o. 13.67 (10) mg./kg., 4.5 hours): 16.0%
- Effect %, inhibition of carrageenine oedema (carrageenine oedema; p.o. 34.17 (25) mg./kg., 1.5 hours): 10.8%
- Effect %, inhibition of carrageenine oedema (carrageenine oedema; p.o. 34.17 (25) mg./kg., 3 hours): 18.3%
- Effect %, inhibition of carrageenine oedema (carrageenine oedema; p.o. 34.17 (25) mg./kg., 4.5 hours): 21.9%
- Effect %, inhibition of carrageenine oedema (carrageenine oedema; p.o. 68.35 (50) mg./kg., 1.5 hours): 14.8%
- Effect %, inhibition of carrageenine oedema (carrageenine oedema; p.o. 68.35 (50) mg./kg., 3 hours): 19.9%
- Effect %, inhibition of carrageenine oedema (carrageenine oedema; p.o. 68.35 (50) mg./kg., 4.5 hours): 28.5%
- effect on cotton granuloma compared with Indomethacine (cotton granuloma; even when added in a twofold dosage): lower than that of Indomethacine
- Effect %, cotton granuloma (cotton granuloma; oral daily 5.5 (4) mg./kg., p 0.01): 19.5%
- Effect %, cotton granuloma (cotton granuloma; oral daily 11 (8) mg./kg., p 0.001): 24.8%
- Effect % (average), inhibition of kaoline oedema (kaoline oedema; p.o. 13.67 (10) mg./kg., 2 hours): 10.2%
- Effect % (average), inhibition of kaoline oedema (kaoline oedema; p.o. 13.67 (10) mg./kg., 3.5 hours): 15.8%
- Effect % (average), inhibition of kaoline oedema (kaoline oedema; p.o. 13.67 (10) mg./kg., 5 hours): 18.8%
- Effect % (average), inhibition of kaoline oedema (kaoline oedema; p.o. 34.17 (25) mg./kg., 2 hours): 12.0%
- Effect % (average), inhibition of kaoline oedema (kaoline oedema; p.o. 34.17 (25) mg./kg., 3.5 hours): 22.1%
- Effect % (average), inhibition of kaoline oedema (kaoline oedema; p.o. 34.17 (25) mg./kg., 5 hours): 27.3%
- Effect %, inhibition of kaoline oedema (kaoline oedema; p.o. 68.35 (50) mg./kg., 2 hours): 21.9%
- Effect %, inhibition of kaoline oedema (kaoline oedema; p.o. 68.35 (50) mg./kg., 3.5 hours): 30.2%
- Effect %, inhibition of kaoline oedema (kaoline oedema; p.o. 68.35 (50) mg./kg., 5 hours): 33.3%
- Effect %, inhibition of kaoline oedema (kaoline oedema; p.o. 136.7 (100) mg./kg., 2 hours): 26.9%
- Effect %, inhibition of kaoline oedema (kaoline oedema; p.o. 136.7 (100) mg./kg., 3.5 hours): 41.1%
- Effect %, inhibition of kaoline oedema (kaoline oedema; p.o. 136.7 (100) mg./kg., 5 hours): 37.9%
- dosage inhibiting oedema, times higher than Indomethacine (kaoline oedema; kaoline oedema, molar equivalents compared): about 2.5 times
- antiphlogistic effect, times weaker than Indomethacine (kaoline oedema; summary of the comparison): about 2.5 times
- Animals having lesions on the intestines (rats; oral 27.3 (20) mg./kg.): 10.5%
- Survivals (rats; oral 27.3 (20) mg./kg.): 19
- Ulcer number (rats; oral 27.3 (20) mg./kg.): 0
- Animals having lesions on the intestines (rats; oral 54.7 (40) mg./kg.): 80%
- Survivals (rats; oral 54.7 (40) mg./kg.): 15
- Ulcer number (rats; oral 54.7 (40) mg./kg.): 0.27
- frequency of occurrence of intestinal lesions compared with Indomethacine (rats; rats, oral, fivefold dosage): doubled
- lesions on intestines compared with Indomethacine (rats; rats, oral, fivefold dosage): far more severe
- extent of perishment, lower than that caused by Indomethacine 8 mg./kg. (rats; rats, oral, fivefold dosage with respect to Indomethacine (8 mg./kg.)): 50%
- lesions on the mucous membrane of the stomach (rats; rats, oral, Indomethacine 4 and 8 mg./kg., […]): slightly more severe lesions
- Effect % average, writhing (writhing syndrome; p.o. 6.8 (5) mg./kg., 2 hours): 24.8%
- Effect % average, writhing (writhing syndrome; p.o. 6.8 (5) mg./kg., 4 hours): 19.3%
- Effect % average, writhing (writhing syndrome; p.o. 17.1 (12.5) mg./kg., 2 hours): 56.1%
- Effect % average, writhing (writhing syndrome; p.o. 17.1 (12.5) mg./kg., 4 hours): 53.5%
- dosage provoking the same analgesic effect, times higher than Indomethacine (writhing syndrome; writhing, ratio refers to molar equivalents): 2.5 times
